{"source": "patent US11317626B2", "about": "“Forchlorfenuron mixtures and uses thereof” (Valent BioSciences LLC, priority 2018, dated 2022)", "type_in_all_cases": "in vivo", "key": {"[1]": {"system": "Flame seedless grape vines", "assay": "Example 3: bud break on spurs of field-grown Flame seedless grape vines", "settings": "41 days post application", "description": "(§1) To determine if the mixtures provided unexpected results, the observed combined efficacy (“OCE”) was divided by the expected combined efficacy (“ECE”) wherein the expected ECE is calculated by the Abbott method: ECE=A+B−(AB/100), • wherein ECE is the expected combined efficacy and in which A and B are the speed of bud break relative to control, the number of buds broken per plant relative to control, shoot length relative to control or shoot weight relative to control given by the single active ingredients. If the ratio between the OCE of the mixture and the ECE of the mixture is greater than 1, then greater than expected interactions are present in the mixture. (Gisi, Synergistic Interaction of Fungicides in Mixtures, The American Phytopathological Society, 86:11, 1273-1279,1996). Results\nTo assess the ability of mixtures of the invention to promote and synchronize bud break, these mixtures were applied to field-grown Flame seedless grape vines in Thermal, Calif., and examined for bud break (initiation of growth) and subsequent shoot development. Forchlorfenuron, Dormex (50% HC), 15-0-0 (Erger®) and 17-0-0 fertilizers (CAN17), and mixtures thereof were each applied individually or sequentially (co-applied) to the separate spurs of Flame seedless grape vines. Plants were evaluated for bud break at 41 days after treatment. Results of these evaluations can be seen below in Tables 11 and 12."}, "[2]": {"system": "Concord grape vines", "assay": "Example 2: Concord grape vines greenhouse, forchlorfenuron and 17-0-0 fertilizer (CAN17) study", "settings": "for Fresh Weight at Harvest: combined shoot fresh weight, 52 days after planting; for 50% BB: days after treatment to 50% bud break; for Average Number of Broken Nodes Per Plant at Harvest: harvest 52 days after planting", "excerpt": "To assess the ability of mixtures of the invention to promote and synchronize bud break these mixtures were applied to Concord grape vines and examined for bud break (initiation of growth) and subsequent shoot development. Specifically, dormant bare-rooted Concord grape vines were planted in pots containing Pro-Mix® BX potting soil (Pro-Mix is a registered trademark of and available from Premier Horticulture Ltd.) and pruned to five nodes on a single shoot of one-year-old wood. Nodes are regions on the shoot where leaves arise from the shoot and buds are present at the axis of the shoot:leaf interface. The bud found at the shoot:leaf interface develops into the vines new shoot growth. Aqueous solutions of forchlorfenuron, HC, 15-0-0 fertilizer, 17-0-0 fertilizer, and mixtures thereof were each applied individually or sequentially or co-applied to the first-year wood of separate Concord grape vines. […] Percent bud break is determined by the number of plants that have at least one bud broken divided by the total number of plants per treatment times 100. […] New shoot growth is the growth arising from the dormant buds not including the woody growth that was planted and gave rise to the new growth.\nas §1\nThe experiment from Example 1 was repeated with varying quantities of forchlorfenuron and fertilizers in a greenhouse experiment."}, "[3]": {"system": "Malus (apple) rootstocks", "assay": "Example 4: bud break and shoot growth of Malus (apple) rootstocks", "settings": "for Fresh Weight at Harvest: combined new shoot growth; for Fresh Weight at Harvest / Average Number of Broken Buds Per Malus Plant at Harvest / Fresh Weight per Bud at Harvest / Average Number of Broken Nodes Per Centimeter of Shoot at Harvest: harvest at 28 days; for Average Number of Broken Nodes Per Centimeter of Shoot at Harvest: rootstocks pruned to 25 centimeters", "description": "as §1\nTo assess the ability of mixtures of the invention to promote and synchronize bud break, these mixtures were applied to field-grown Malus (apple) rootstocks and examined for bud break (initiation of growth) and subsequent shoot development. Forchlorfenuron, Dormex (50% HC), 15-0-0 (Erger®) and 17-0-0 fertilizers (CAN17), and mixtures thereof were each applied individually or sequentially (co-applied) to the shoots of potted Malus rootstocks that were pruned to a height of 25 centimeters. Plants were evaluated for bud break at 28 days after treatment."}}}
{"smiles": "O=C(Nc1ccccc1)Nc1ccnc(Cl)c1", "note": "[CPPU, N-(2-Chloro-4-pyridyl)-N′-phenylurea]", "values": [{"measurement": "Broken Buds per Spur (OCE)", "setting": "[1]; listed as CPPU 300 ppm", "result": 0.00}, {"measurement": "Percentage of Spurs With At Least One Bud Broken (OCE)", "setting": "[1]; listed as CPPU 300 ppm", "result": 0, "unit": "%"}, {"measurement": "Broken Buds per Spur (OCE)", "setting": "[1]; listed as CPPU 600 ppm", "result": 0.03}, {"measurement": "Percentage of Spurs With At Least One Bud Broken (OCE)", "setting": "[1]; listed as CPPU 600 ppm", "result": 3, "unit": "%"}, {"measurement": "Broken Buds per Spur (OCE)", "setting": "[1]; listed as CPPU 1000 ppm", "result": 0.00}, {"measurement": "Percentage of Spurs With At Least One Bud Broken (OCE)", "setting": "[1]; listed as CPPU 1000 ppm", "result": 0, "unit": "%"}, {"measurement": "Fresh Weight at Harvest", "setting": "[2]; listed as CPPU 300 ppm", "result": 14.30, "unit": "grams"}, {"measurement": "Fresh Weight at Harvest", "setting": "[2]; listed as CPPU 600 ppm", "result": 15.10, "unit": "grams"}, {"measurement": "Fresh Weight at Harvest", "setting": "[2]; listed as CPPU 1000 ppm", "result": 11.33, "unit": "grams"}, {"measurement": "50% BB", "setting": "[2]; listed as CPPU 300 ppm", "result": 31, "unit": "days"}, {"measurement": "50% BB", "setting": "[2]; listed as CPPU 600 ppm", "result": 35, "unit": "days"}, {"measurement": "50% BB", "setting": "[2]; listed as CPPU 1000 ppm", "result": 38, "unit": "days"}, {"measurement": "Average Number of Broken Nodes Per Plant at Harvest", "setting": "[2]; listed as CPPU 300 ppm", "result": 1.86}, {"measurement": "Average Number of Broken Nodes Per Plant at Harvest", "setting": "[2]; listed as CPPU 600 ppm", "result": 2.00}, {"measurement": "Average Number of Broken Nodes Per Plant at Harvest", "setting": "[2]; listed as CPPU 1000 ppm", "result": 1.80}, {"measurement": "Fresh Weight at Harvest", "setting": "[3]; listed as CPPU 300 ppm", "result": 6.98, "unit": "grams"}, {"measurement": "Fresh Weight at Harvest", "setting": "[3]; listed as CPPU 600 ppm", "result": 5.65, "unit": "grams"}, {"measurement": "50% BB", "setting": "[3]; days after treatment to 50% bud break", "result": 12, "unit": "days"}, {"measurement": "Average Number of Broken Buds Per Malus Plant at Harvest", "setting": "[3]; listed as CPPU 300 ppm", "result": 7.00}, {"measurement": "Fresh Weight per Bud at Harvest", "setting": "[3]; listed as CPPU 300 ppm", "result": 0.88, "unit": "grams"}, {"measurement": "Average Number of Broken Buds Per Malus Plant at Harvest", "setting": "[3]; listed as CPPU 600 ppm", "result": 8.25}, {"measurement": "Fresh Weight per Bud at Harvest", "setting": "[3]; listed as CPPU 600 ppm", "result": 0.71, "unit": "grams"}, {"measurement": "Average Number of Broken Nodes Per Centimeter of Shoot at Harvest", "setting": "[3]; listed as CPPU 300 ppm", "result": 0.28}, {"measurement": "Average Number of Broken Nodes Per Centimeter of Shoot at Harvest", "setting": "[3]; listed as CPPU 600 ppm", "result": 0.33}, {"measurement": "50% BB OCE", "setting": "[3]; observed efficacy, relative to control", "result": 2}]}
